From patent publication US8022178B2, “Modified self-assembling peptides” (Massachusetts Institute of Technology, priority 2006, dated 2011)

Columns and labels:
[1] = tested on: chick Chorioallantoic Membrane; assay: Chorioallantoic Membrane (CAM) assay of angiogenesis; type: in vivo, chicken; conditions: hydrogel placed Day 8, histology Day 12, FIG. 30
Experimental: In vivo study of angiogenesis was performed using Chorioallantoic Membrane (CAM) assay. At Day 8 of fertilized chicken egg incubation, hydrogels of 10 mm diameter with 1 mm thickness were transferred to chick Chorioallantoic Membrane. The hydrogels were selected from Table 19 and gels were formed before the transfer. On Day 12, CAMs were collected for histology. The angiogenesis inside and below the hydrogel were evaluated by histological cross section.

[2] = tested on: HUVEC (human umbilical vein endothelial cells); assay: Endothelial cell migration from beads to hydrogels; type: cell-based; conditions: Day 2; compared to RAD; FIGS. 26-27
Experimental: Endothelial cell migration effect on the hydrogels was evaluated. The endothelial cell migration is important when the vessel has in-growth into the matrix. HUVEC (human umbilical vein endothelial cells) were seeded on Collagen coated Dextran beads (Cytodex3, microcarrier beads, Sigma), then transferred to different hydrogels which selected from Table 19.
FIGS. 26A-26F show the fluorescence microscopy image of beads on the peptide matrix at Day 1 and Day 2 after placing the beads. […] The white bar represents 100 um. On the Day 1, most of the cells stayed on the beads. On the Day 2, the cells were well migrated from the beads to Collagen, PRGmx and KLTmx gel compared to RAD.
The cells are counted in fluorescence microscopy image. The above observation were also confirmed in the graph.

[3] = tested on: HUVEC (human umbilical vein endothelial cells); assay: HUVEC cultured 2-dimensionally on hydrogels: cell attachment and morphology; type: cell-based
Experimental: The effect of functional modified peptide matrix to HUVEC (human umbilical vein endothelial cells) was evaluated by culturing cells 2-dimensionally on the gel.
(§1) The peptide solutions shown in Table 19 were loaded in the culture inserts (10 mm diameter, Millicell-CM, Millipore) and gels were formed using cell culture medium (EGM-2-MV, Camblex). Collagen-1 and Matrigel were used as control matrices. HUVEC (human umbilical vein endothelial cells) were plated at 8×10^4 cells on the inserts and cultured up to 7 Days.

[4] = tested on: HUVEC (human umbilical vein endothelial cells); assay: HUVEC DNA amount in the well after three days culture; type: cell-based; conditions: compared to RAD, FIG. 25
Experimental: as §1
The amount of DNA in the well after three days culture was evaluated in selected hydrogels of Table 19. The DNA amount is proportional to the number of the cells.

COL: Collagen-1 gel (0.25%); Collagen I gel from rat tail (BD Bioscience), control matrix
angiogenesis inside and below the hydrogel [1]: no angiogenesis both inside and below the hydrogel | cell migration from the beads to the hydrogel [2]: well migrated | Cell attachment ([3]; HUVEC cultured on hydrogels): ++++ (++++: near confluence(>70%)) | cell attachment compared to RAD ([3]; HUVEC on hydrogels for two days, confocal, FIGS. 24A-24M): higher cell attachment | DNA amount in the well [4]: statically higher
